Measured values taken from patent US20150133341A1, “Intra-Operative Cancer Diagnosis Based on a Hyperpolarized Marker” (ALBEDA INNOVATIONS APS, priority 2012, published 2015).
Counter-ions that a name gives are not always drawn. Like-named read-outs stand apart in the source and are kept apart here. Marks after values point to notes of the source that are not given here. One block for each compound: values may come before it.

Experiments:
[1] = system: isolated CE-1 enzyme from porcine liver; assay: CE-1 activity on short chain esters, 1H NMR; type: biochemical; conditions: for k: 26 μmol substrate, conversion over 60 min; for faster converted than ethyl acetate: vs ethyl acetate
Excerpt: To measure almost exclusively the contribution of carboxyl esterase activity from the CE-2 isoform, human breast cancer cells (MCF-7) were employed. These cells are known from literature to express CE-2 but not to express CE-1 (Byun et al, 2008, Cancer letters 266:238-48). A group of esters was investigated as substrates for CE-1, which contained different structural features. These consisted of esters of un-substituted acids (examples are ethyl acetate, ethyl butyrate, methyl butyrate), esters of acids substituted on C2 (examples are ethyl lactate and ethyl 2-acetoxy propanoate), esters of acids substituted on C3 (examples are ethyl 3-hydroxy butyrate and ethyl 3-acetoxy butanoate), esters of ring closed acids (example ethyl pyroglutamate), esters of di-acids (examples are diethyl succinate and dimethyl succinate), esters of tri-acids (example triethyl citrate), ethyl esters of beta-keto acids (example ethyl acetoacetate). Also esters with large alcohol groups and small acid groups were investigated. In this group, the acid part of the molecule was always acetate and different structural properties of the alcohol were investigated. These consisted of esters of un-substituted alcohols (examples ethyl acetate and butyl acetate), esters of branched chain alcohols (examples t-butyl acetate, ethyl 3-acetoxy butanoate and 2-acetoxy propionate), esters of aromatic alcohols (example benzyl acetate), esters of diols (example ethyleneglycol diacetate), esters of triols (example triacetin). […] Similarly, a group of esters which contained different structural features was investigated as substrates for CE-2. CE-2 substrates are described in the literature to consist of a small acid group and a larger alcohol group. All included esters were acetate esters (i.e. esters of acetic acid) in the interest of keeping the acid moiety the smallest possible. The acetate esters measured for CE-2 activity were therefore the same as those measured in the second group of possible substrates for CE-1.
The CE-1 experiments were performed with commercially available CE-1 from porcine liver. Individual samples of the substrates were all prepared the following way: 26 μmol was weighted in an eppendorf tube. 550 μl deuterated phosphate buffer (200 mM, pH 7.5) was added and the substrate was brought into solution by whirl mixing. The solution was transferred to a 5 mm NMR tube and inserted in the spectrometer at 37° C. A reference experiment was acquired on the substrate solution without enzyme after which 10 μl of an esterase stock solution (37 U/ml in deuterated phosphate buffer) was added in the top of the tube. The sample was mixed and returned to the spectrometer. A series of thermal 1D ^1H NMR experiments were recorded every 5 min for 60 min. The data were analysed with MNOVA software and measured as percentage conversion of substrate calculated to account for the amount of substrate converted over 60 min. The numbers are given in μmol/min.

[2] = molecular target: T1, CE-2 in lysed human breast cancer cells (MCF-7) (Homo sapiens, UniProt O00748); assay: CE-2 activity on acetate esters in lysed MCF-7 cells, 1H NMR; type: biochemical; conditions: for k: 5 million lysed MCF-7 cells, 37° C., 1 hour; for hydrolysis by CE-2, in words: lysed MCF-7 cells
T1 construct: endogenous in cells; host or cells: MCF-7 (sonicated lysate)
T1 sequence (O00748 27-559): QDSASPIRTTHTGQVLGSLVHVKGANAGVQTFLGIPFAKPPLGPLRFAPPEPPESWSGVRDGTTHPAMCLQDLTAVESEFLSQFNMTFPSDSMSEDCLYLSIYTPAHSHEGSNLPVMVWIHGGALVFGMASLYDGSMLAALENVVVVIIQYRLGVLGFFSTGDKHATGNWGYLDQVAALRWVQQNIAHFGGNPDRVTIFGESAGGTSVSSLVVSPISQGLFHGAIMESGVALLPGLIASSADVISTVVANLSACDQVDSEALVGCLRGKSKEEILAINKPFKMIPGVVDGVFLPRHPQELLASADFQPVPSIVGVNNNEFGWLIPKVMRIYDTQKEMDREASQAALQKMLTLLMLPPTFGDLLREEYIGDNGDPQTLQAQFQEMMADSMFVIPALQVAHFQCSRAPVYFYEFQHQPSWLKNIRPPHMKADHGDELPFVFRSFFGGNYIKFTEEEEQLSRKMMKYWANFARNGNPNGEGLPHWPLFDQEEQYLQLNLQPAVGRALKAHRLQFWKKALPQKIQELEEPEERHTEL
Method: Different classes of short chain esters, fulfilling the requirements for the hyperpolarization technique (stable, soluble, low molecular weight compounds (<400 Da), were evaluated as substrates for carboxyl esterases with the aim to identify esters as similar or better substrates for carboxyl esterases than 1,3-^13C2 ethyl acetoacetate. In most human cell types, including a wide range of cancer cells and lymphocytes, the activity of carboxyl esterase is dominated by the activities of isoforms 1 and 2 (CE-1 and CE-2). To measure exclusively the hydrolysis of carboxyl esterase from the CE-1 isoform, an isolated enzyme from porcine liver was applied. To measure almost exclusively the contribution of carboxyl esterase activity from the CE-2 isoform, human breast cancer cells (MCF-7) were employed. These cells are known from literature to express CE-2 but not to express CE-1 (Byun et al, 2008, Cancer letters 266:238-48). A group of esters was investigated as substrates for CE-1, which contained different structural features. […] Also esters with large alcohol groups and small acid groups were investigated. In this group, the acid part of the molecule was always acetate and different structural properties of the alcohol were investigated. These consisted of esters of un-substituted alcohols (examples ethyl acetate and butyl acetate), esters of branched chain alcohols (examples t-butyl acetate, ethyl 3-acetoxy butanoate and 2-acetoxy propionate), esters of aromatic alcohols (example benzyl acetate), esters of diols (example ethyleneglycol diacetate), esters of triols (example triacetin). Esters of alpha-keto acids were too unstable to be investigated in this assay. Esters of larger alcohols are not water soluble and therefore not relevant substrates for the purpose of the invention. Similarly, a group of esters which contained different structural features was investigated as substrates for CE-2. CE-2 substrates are described in the literature to consist of a small acid group and a larger alcohol group. All included esters were acetate esters (i.e. esters of acetic acid) in the interest of keeping the acid moiety the smallest possible. The acetate esters measured for CE-2 activity were therefore the same as those measured in the second group of possible substrates for CE-1. The CE-2 experiments were performed with lysed breast cancer cells (MCF-7). MCF-7 cells were grown in RPMI medium with 10% FBS and antibiotics. They were at confluence harvested by trypsination and washed once with 5 ml PBS. They were spun down and resuspended in PBS to a concentration of 20 mill. cells/ml. The cells were hereafter sonicated on ice (50% amplitude, 1 min, 3 sec pulse). 250 μl sonicated cell suspension was mixed with 250 μl 400 mM phosphate buffer pH 7.3. […] The substrate was added (50 μl, 60 mM) and the tube turned for mixing before it was inserted into the spectrometer. An initial spectrum was acquired and the sample was hereafter placed at 37° C. for 1 hour in a water bath. The sample was again inserted into the magnet and a second spectrum was recorded. The data was analysed with MNOVA software and measured as percentage conversion of substrate calculated to account for the amount of substrate converted over 60 min. The numbers are given in μmol/hour.

[3] = system: carboxyl esterase in lysed breast cancer cells (MCF-7); assay: Carboxyl esterase activity in cell extract, 1H NMR; type: biochemical, human; conditions: for Metabolic conversion, Breast cancer cells MCF-7: 5 million lysed cells, 37° C.
Method: (§1) The hydrolysis of the substrates was investigated in cell extracts. To test substrates without isotope labelling for carboxyl esterase activity in a cellular background, a ^1H NMR assay was applied. Human breast cancer cells (MCF-7) and human prostate cancer cells (PC-3) were grown in RPMI medium with 10% FBS and antibiotics. They were at confluence harvested by trypsination and washed once with 5 ml PBS. They were spun down and resuspended in PBS to a concentration of 20 mill. cells/ml. The cells were hereafter sonicated on ice (50% amplitude, 1 min, 3 sec pulse). Human lymphocytes were purified from whole blood. Whole blood samples were drawn from healthy volunteer into heparinised venous blood collection tubes (Venosafe vacumtubes from Terumo). For each experiment, the blood was purified freshly: Three and a half 10 mL tubes of blood were pooled in each of four 50 mL Leucosep (Greiner) tubes prepared with 15 mL Histopaque 1077 (Sigma). The Leucosep tubes were spun for 15 min at 800× g at 24 C. The plasma was removed and the white blood cells were transferred to a 50 mL falcon tube by decanting and diluted 1:2 in PBS-Mg—Ca for a total volume of 50 mL. The cells were sedimented by centrifugation at 250×g for 60 min. Diluting with trypan blue and counting in hemocytometer determined the total number of lymphocytes before sedimentation. All cells were viable and the total number of cells in each cell batch was approx. 60 million. The lymphocytes were redissolved to a concentration of 20 million cells/ml. The cells were hereafter sonicated on ice (50% amplitude, 1 min, 3 sec pulse).
(§2) 250 μl sonicated cell suspension was mixed with 250 μl 400 mM phosphate buffer pH 7.3. This solution was transferred to a 5 mm NMR tube and warmed on a water bath to 37° C. The substrate was added (50 μl, 60 mM) and the tube turned for mixing before it was inserted into the spectrometer. The data was analyzed with MNOVA software and measured as percentage conversion of substrate calculated to account for the amount of substrate converted over 60 min; numbers are given in μmol/hour.

[4] = system: carboxyl esterase in lysed lymphocytes (B + T cells); assay: Carboxyl esterase activity in cell extract, 1H NMR; type: biochemical, human; conditions: 5 million lysed cells, 37° C.
Method: as §1, §2

[5] = system: carboxyl esterase in lysed prostate cancer cells (PC-3); assay: Carboxyl esterase activity in cell extract, 1H NMR; type: biochemical, human; conditions: for Metabolic conversion, Prostate cancer cells PC-3: 5 million lysed cells, 37° C.
Method: as §1, §2

Structure (SMILES): CCCCOC(C)=O [Butyl acetate]
k ([1]; 37° C.): 0.04 µmol/min
k [2]: 0.24 µmol/min
hydrolysis by CE-2, in words [2]: hydrolysed to a similar extent

Structure (SMILES): CCOC(=O)CC(C)O (stereo not shown) [Ethyl 3-Hydroxybutyrate]
k ([1]; 37° C.): 0.08 µmol/min

Structure (SMILES): CCOC(=O)CC(C)=O [Ethyl acetoacetate]
Metabolic conversion, Breast cancer cells MCF-7 [3]: 0* umol/hour
contrast in breast cancer cells relative to lymphocytes, in words ([3]; cell number basis, FIG. 9A): highest contrast
Metabolic conversion, Lymphocytes (B + T cells) [4]: 0.15 µmol/h
Metabolic conversion, Prostate cancer cells PC-3 [5]: 0* umol/hour
contrast in prostate cancer cells relative to lymphocytes, in words ([5]; cell number basis, FIG. 9B): highest negative contrast
k ([1]; 37° C.): 0.12 µmol/min

Structure (SMILES): CCOC(=O)[C@@H]1CCC(=O)N1 [Ethyl pyroglutamate]
conversion by CE-1, in words [1]: only hydrolyzed to a very low extent
k ([1]; 37° C.): 0.02 µmol/min
conversion by CE-1, in words ([1]; listed as ethyl ester of pyroglutamate): barely detectable

Structure (SMILES): CCCC(=O)OCC [Ethylbutyrate]
k ([1]; 37° C.): 0.12 µmol/min

Structure (SMILES): CC(=O)OCCOC(C)=O [Ethyleneglycol diacetate]
k ([1]; 37° C.): 0.07 µmol/min
k [2]: 0.18 µmol/min

Structure (SMILES): CCCC(=O)OC [Methylbutyrate]
Metabolic conversion, Breast cancer cells MCF-7 [3]: 0.42 µmol/h
Metabolic conversion, Lymphocytes (B + T cells) [4]: 0.90 µmol/h
Metabolic conversion, Prostate cancer cells PC-3 [5]: 0.51 µmol/h
k ([1]; 37° C.): 0.22 µmol/min

Structure (SMILES): CC(=O)OC(C)(C)C [Tert-butyl acetate]
k ([1]; 37° C.): 0 µmol/min

Structure (SMILES): CCOC(=O)C(C)OC(C)=O (stereo not shown) [ethyl 2-acetoxy propanoate]
k (μmol/min), acetate ester ([1]; hydrolysis of the acetate ester function, 37° C., 60 min): 0 µmol/min
k (μmol/min), ethyl ester ([1]; hydrolysis of the ethyl ester function, 37° C., 60 min): 0.16 µmol/min
hydrolysis by CE-2, in words [2]: hydrolysed to a similar extent

The next lines start with results.

k ([1]; 37° C.): 0.48 µmol/min
faster converted than ethyl acetate [1]: more than ten times faster converted
Structure (SMILES): CCOC(=O)CCC(=O)OCC [Diethyl succinate]
Metabolic conversion, Breast cancer cells MCF-7 [3]: 0.12 µmol/h
negative contrast, lower than that of EAA ([3]; breast cancer cells relative to lymphocytes, cell number basis): approx. 3 times
Metabolic conversion, Lymphocytes (B + T cells) [4]: 0.60 µmol/h
Metabolic conversion, Prostate cancer cells PC-3 [5]: 0.48 µmol/h

k ([1]; 37° C.): 0.41 µmol/min
faster converted than ethyl acetate [1]: more than ten times faster converted
Structure (SMILES): COC(=O)CCC(=O)OC [Dimethyl succinate]

k ([1]; 37° C.): 0.11 µmol/min
Structure (SMILES): CCOC(=O)C(C)O (stereo not shown) [Ethyl lactate]

conversion by CE-1, in words [1]: not a good substrate
k ([1]; 37° C.): 0.03 µmol/min
k [2]: 0 µmol/min
hydrolysis by CE-2, in words [2]: not hydrolysed
Structure (SMILES): CCOC(C)=O [Ethylacetate]

conversion by CE-1, in words [1]: only hydrolyzed to a very low extent
k ([1]; 37° C.): 0 µmol/min
conversion by CE-1, in words ([1]; listed as triethyl citrate): no hydrolysis could be detected
Structure (SMILES): CCOC(=O)CC(O)(CC(=O)OCC)C(=O)OCC [Triethyl citrate]
